Results reported in PubChem BioAssay (NCI).
Values joined by “and” are separate entries in the source; they are usually repeats but may differ in a detail not shown here. Equal values may be shown once.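 Interpolation was linear, between the two tested concentrations surrounding the appropriate level; five concentrations were tested over 48 hours in 96-well plates. GI50 marks 50% less growth. TGI marks complete inhibition of growth.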

Experiments:
Test in all cases: NCI-60 cell line screen, 48 h
CAKI-1 renal = tested on: CAKI-1 renal
HCT-116 colon = tested on: HCT-116 colon
KM12 colon = tested on: KM12 colon
M14 melanoma = tested on: M14 melanoma
MDA-MB-231 breast = tested on: MDA-MB-231 breast
NCI-H460 lung = tested on: NCI-H460 lung
OVCAR-3 ovarian = tested on: OVCAR-3 ovarian
PC-3 prostate = tested on: PC-3 prostate
SK-MEL-5 melanoma = tested on: SK-MEL-5 melanoma
T-47D breast = tested on: T-47D breast

| SMILES | GI50 (CAKI-1 renal) | TGI (CAKI-1 renal) | GI50 (HCT-116 colon) | TGI (HCT-116 colon) | GI50 (KM12 colon) | TGI (KM12 colon) | GI50 (M14 melanoma) | TGI (M14 melanoma) | GI50 (MDA-MB-231 breast) | TGI (MDA-MB-231 breast) | GI50 (NCI-H460 lung) | TGI (NCI-H460 lung) | GI50 (OVCAR-3 ovarian) | TGI (OVCAR-3 ovarian) | GI50 (PC-3 prostate) | TGI (PC-3 prostate) | GI50 (SK-MEL-5 melanoma) | TGI (SK-MEL-5 melanoma) | GI50 (T-47D breast) | TGI (T-47D breast) |
| --- | --- | --- | --- | --- | --- | --- | --- | --- | --- | --- | --- | --- | --- | --- | --- | --- | --- | --- | --- | --- |
| COc1cc2c(cc1OCC(=O)Nc1ccc(Cl)cc1C(=O)c1ccccc1Cl)N=CC1CCCN1C2=O (stereo not given) | 13.6 µM | 28.3 µM | 7.18 µM | 20.5 µM | 11.8 µM | 26 µM | 14.1 µM | 27.9 µM | 10.7 µM | 25.7 µM | 11.1 µM | 27.1 µM | 3.72 µM | 14.6 µM | 12.3 µM | 33.2 µM | 10 µM | 21.9 µM | 5.21 µM | 22.2 µM |
| COc1cccc(N2CC(O)=C(c3nc4ccccc4s3)C2=N)c1 | 0.11 µM | > 100 µM | 0.35 µM | > 47.2 µM | 0.234 µM | > 100 µM | 0.35 µM | 48.8 µM | 0.359 µM | 3.42 µM | 0.24 µM | > 100 µM | 0.269 µM | 0.82 µM | 0.32 µM | > 100 µM | 0.211 µM | 23 µM | 46.5 µM | > 100 µM |
| O=C(Nc1ccc(Cl)c(Cl)c1)c1ccc(NC2=C(Cl)C(=O)N(Cc3ccccc3)C2=O)cc1 | 3 µM | 12.6 µM | 1.94 µM | 4.25 µM | 11.5 µM | 27.2 µM | 17.1 µM | 32.9 µM | 3.06 µM | 9.41 µM | 9.32 µM | 22.8 µM | 2.14 µM | 4.86 µM | 3.55 µM | 13.4 µM | 5.02 µM | 17.9 µM | 31.6 µM | 92 µM |
| CCN(CC)CCOc1nc2ccccc2c2c1-c1ccc(OC)cc1C2=O | 0.486 µM | 3.66 µM | 0.331 µM | 1.55 µM | 0.395 µM | 1.58 µM | 1.36 µM | 3 µM | 1.4 µM | 6.22 µM | 0.317 µM | 1.3 µM | 0.642 µM | 2.15 µM | 1.44 µM | 23.3 µM | 1.52 µM | 3.09 µM | 2.51 µM | 8.8 µM |
| O=C1C2=C(C(=O)c3ccccc31)C(O)(S(=O)(=O)O)C(O)(S(=O)(=O)O)C1N=CC=CC21 (stereo not given) | 1.72 µM and 0.315 µM | 9.4 µM and 1.87 µM | 3.34 µM and 2.81 µM | 20.1 µM and 12.7 µM | 4.33 µM and 4.8 µM | 67.4 µM and 20 µM | 4.83 µM and 3.2 µM | 32.1 µM and 29.4 µM | 14.5 µM and 4.51 µM | > 100 µM and 46.6 µM | 2.84 µM and 1.39 µM | 11.7 µM and 6.25 µM | 2.33 µM and 2.86 µM | 6.78 µM and 11.7 µM | 4.69 µM and 3.2 µM | > 100 µM and 29.6 µM | 3.96 µM and 3.63 µM | 16.3 µM and 14.5 µM | 3.97 µM and 4.7 µM | 28.5 µM and 30.7 µM |
| COc1ccc2c3ccnc(C(F)(F)F)c3n(CCCCN)c2c1 | 4.66 µM | 21.4 µM | 3.84 µM | 13.4 µM | 5.1 µM | 17.6 µM | 4.93 µM | 17.3 µM | 8.12 µM | 21.7 µM | 5.18 µM | 17.7 µM | 3.82 µM | 15.3 µM | 1.96 µM | 13.9 µM | 2.83 µM | 9.05 µM | 6.86 µM | 23.8 µM |
